{
  "source": "patent US10670605B2",
  "about": "“Cysteine reactive probes and uses thereof” (The Scripps Research Institute, priority 2015, dated 2020)",
  "assay_in_all_cases": "isoTOP-ABPP of compound-treated primary human T cells",
  "assay_type_in_all_cases": "cell-based",
  "key": {"[1]": {"target": "T1, Cys residues in primary human T cells (Homo sapiens, UniProt P11216)", "T1 sequence (P11216 1-843)": "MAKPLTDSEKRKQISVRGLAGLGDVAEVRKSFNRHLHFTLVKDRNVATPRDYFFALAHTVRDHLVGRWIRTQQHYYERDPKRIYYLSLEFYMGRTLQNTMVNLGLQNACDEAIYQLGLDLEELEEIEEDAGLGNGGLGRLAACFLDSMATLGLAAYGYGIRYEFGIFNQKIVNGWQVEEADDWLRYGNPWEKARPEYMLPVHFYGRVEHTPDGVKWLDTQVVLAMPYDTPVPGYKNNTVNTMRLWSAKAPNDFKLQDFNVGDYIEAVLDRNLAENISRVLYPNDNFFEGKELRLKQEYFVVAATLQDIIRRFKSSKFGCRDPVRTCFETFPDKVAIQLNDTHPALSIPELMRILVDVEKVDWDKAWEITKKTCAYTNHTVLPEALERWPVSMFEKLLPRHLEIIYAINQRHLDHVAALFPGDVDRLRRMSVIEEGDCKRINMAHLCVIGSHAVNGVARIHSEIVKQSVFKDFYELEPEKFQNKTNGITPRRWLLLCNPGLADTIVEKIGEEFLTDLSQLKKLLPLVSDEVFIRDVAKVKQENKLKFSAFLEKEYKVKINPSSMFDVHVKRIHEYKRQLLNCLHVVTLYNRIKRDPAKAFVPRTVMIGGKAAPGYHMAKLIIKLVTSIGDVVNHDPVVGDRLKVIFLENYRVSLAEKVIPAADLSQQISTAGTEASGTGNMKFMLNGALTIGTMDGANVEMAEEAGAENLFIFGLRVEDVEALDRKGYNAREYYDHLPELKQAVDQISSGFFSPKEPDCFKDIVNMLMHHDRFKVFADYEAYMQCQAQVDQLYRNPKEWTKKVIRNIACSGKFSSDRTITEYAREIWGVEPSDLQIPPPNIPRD", "details": "PYGB C326 (P11216)"}, "[2]": {"target": "Cys residues in primary human T cells (Homo sapiens, UniProt P31153)", "sequence (P31153 whole entry)": "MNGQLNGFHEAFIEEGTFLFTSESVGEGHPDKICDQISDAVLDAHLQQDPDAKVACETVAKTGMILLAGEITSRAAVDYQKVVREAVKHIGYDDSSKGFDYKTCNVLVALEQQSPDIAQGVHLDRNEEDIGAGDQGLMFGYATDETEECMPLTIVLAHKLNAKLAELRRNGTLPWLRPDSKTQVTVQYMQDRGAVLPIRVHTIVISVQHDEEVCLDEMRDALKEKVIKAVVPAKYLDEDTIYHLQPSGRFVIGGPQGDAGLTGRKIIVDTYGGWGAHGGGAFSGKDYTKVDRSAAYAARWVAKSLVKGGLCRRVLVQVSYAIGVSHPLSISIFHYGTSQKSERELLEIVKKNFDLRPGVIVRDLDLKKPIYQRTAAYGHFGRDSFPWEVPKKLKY"}, "[3]": {"target": "Cys residues in primary human T cells (Homo sapiens, UniProt P46109)", "sequence (P46109 whole entry)": "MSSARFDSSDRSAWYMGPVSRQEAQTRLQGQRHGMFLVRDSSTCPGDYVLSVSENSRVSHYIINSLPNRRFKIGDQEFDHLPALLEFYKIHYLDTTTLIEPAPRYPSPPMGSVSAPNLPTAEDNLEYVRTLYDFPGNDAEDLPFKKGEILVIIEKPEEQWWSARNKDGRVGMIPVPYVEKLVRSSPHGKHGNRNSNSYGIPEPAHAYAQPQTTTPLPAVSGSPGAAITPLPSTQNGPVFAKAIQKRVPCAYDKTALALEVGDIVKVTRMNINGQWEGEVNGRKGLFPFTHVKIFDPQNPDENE", "details": "CRKL C249 (P46109)"}, "[4]": {"target": "Cys residues in primary human T cells (Homo sapiens, UniProt Q8WXH0)", "details": "SYNE2 C553 (Q8WXH0)"}, "[5]": {"target": "Cys residues in primary human T cells (Homo sapiens, UniProt O14933)", "sequence (O14933 whole entry)": "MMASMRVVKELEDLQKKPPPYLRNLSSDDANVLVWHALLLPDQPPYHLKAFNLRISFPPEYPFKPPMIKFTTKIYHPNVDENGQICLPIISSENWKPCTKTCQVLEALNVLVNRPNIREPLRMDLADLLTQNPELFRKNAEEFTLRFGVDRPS", "details": "UBE2L6 C98 (O14933)"}, "[6]": {"target": "Cys residues in primary human T cells (Homo sapiens, UniProt Q93009)", "sequence (Q93009 whole entry)": "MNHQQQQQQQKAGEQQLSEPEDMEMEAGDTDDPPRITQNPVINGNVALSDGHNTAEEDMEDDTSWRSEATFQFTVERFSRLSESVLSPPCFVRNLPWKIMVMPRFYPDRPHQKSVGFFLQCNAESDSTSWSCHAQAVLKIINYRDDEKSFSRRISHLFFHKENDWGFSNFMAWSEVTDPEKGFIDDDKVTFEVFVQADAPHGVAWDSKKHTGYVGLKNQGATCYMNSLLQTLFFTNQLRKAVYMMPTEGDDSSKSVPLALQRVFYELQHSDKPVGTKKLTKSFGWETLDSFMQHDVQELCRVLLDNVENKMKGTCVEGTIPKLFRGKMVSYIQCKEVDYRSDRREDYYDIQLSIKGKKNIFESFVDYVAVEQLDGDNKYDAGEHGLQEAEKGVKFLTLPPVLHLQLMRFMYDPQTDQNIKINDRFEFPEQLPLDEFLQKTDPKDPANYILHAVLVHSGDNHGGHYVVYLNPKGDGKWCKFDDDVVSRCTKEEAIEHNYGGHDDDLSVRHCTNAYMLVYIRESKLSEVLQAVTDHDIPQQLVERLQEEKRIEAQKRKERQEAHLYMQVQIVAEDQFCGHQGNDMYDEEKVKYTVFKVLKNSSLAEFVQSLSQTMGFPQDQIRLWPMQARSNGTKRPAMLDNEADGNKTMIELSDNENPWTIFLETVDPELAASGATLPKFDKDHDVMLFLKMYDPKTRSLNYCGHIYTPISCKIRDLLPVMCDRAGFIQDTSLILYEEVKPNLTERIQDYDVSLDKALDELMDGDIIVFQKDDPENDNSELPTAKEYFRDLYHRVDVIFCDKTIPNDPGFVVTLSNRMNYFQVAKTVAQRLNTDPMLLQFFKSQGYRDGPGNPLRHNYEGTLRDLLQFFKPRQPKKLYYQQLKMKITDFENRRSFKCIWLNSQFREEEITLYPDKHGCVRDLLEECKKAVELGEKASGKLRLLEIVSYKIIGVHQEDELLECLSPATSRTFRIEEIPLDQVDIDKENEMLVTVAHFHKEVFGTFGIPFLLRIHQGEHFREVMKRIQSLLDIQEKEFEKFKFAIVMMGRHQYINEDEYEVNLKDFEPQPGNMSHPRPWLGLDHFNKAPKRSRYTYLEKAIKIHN", "details": "USP7 C315 (Q93009)"}, "[7]": {"target": "T2, Cys residues in primary human T cells (Homo sapiens, UniProt Q96Q11)", "T2 sequence (Q96Q11 42-434)": "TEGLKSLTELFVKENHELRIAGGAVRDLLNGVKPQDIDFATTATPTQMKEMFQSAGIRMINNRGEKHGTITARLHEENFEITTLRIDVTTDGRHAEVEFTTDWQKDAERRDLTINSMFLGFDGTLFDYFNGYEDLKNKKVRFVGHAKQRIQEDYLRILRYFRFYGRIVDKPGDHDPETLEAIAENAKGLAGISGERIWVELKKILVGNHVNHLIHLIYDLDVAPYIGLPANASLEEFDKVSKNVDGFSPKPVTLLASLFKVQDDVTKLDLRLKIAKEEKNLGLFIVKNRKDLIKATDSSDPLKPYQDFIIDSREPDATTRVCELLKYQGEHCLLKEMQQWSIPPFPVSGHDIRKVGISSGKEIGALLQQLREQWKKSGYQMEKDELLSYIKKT", "details": "TRNT1 C373 (Q96Q11)"}, "[8]": {"target": "T3, Cys residues in primary human T cells (Homo sapiens, UniProt Q9Y2W6)", "T3 sequence (Q9Y2W6 1-561)": "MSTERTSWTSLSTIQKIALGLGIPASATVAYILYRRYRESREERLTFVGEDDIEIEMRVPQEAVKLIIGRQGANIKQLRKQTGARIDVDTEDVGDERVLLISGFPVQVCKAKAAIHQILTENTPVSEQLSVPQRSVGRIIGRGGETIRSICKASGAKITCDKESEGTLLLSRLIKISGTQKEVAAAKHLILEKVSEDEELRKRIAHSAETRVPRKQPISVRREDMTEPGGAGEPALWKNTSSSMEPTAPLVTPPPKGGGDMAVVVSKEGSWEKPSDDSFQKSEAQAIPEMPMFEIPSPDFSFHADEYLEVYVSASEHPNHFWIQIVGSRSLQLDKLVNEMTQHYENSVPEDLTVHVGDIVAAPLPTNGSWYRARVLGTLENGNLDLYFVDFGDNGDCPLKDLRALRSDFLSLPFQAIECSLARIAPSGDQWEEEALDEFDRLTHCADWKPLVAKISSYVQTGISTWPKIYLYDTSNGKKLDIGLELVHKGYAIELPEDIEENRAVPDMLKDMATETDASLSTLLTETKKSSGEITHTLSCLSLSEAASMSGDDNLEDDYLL", "details": "TDRKH C109 (Q9Y2W6)"}, "[9]": {"target": "Cys residues in primary human T cells (Homo sapiens, UniProt Q5T4S7)", "details": "UBR4 C2554 (Q5T4S7)"}},
  "note": "Structures can show the parent of a compound that is named as a salt.",
  "data": [
    {"compound": "COC(=O)/C=C/C(=O)OC", "note": "[DMF, dimethyl fumarate]", "values": [
      {"measurement": "R value (DMSO/DMF)", "setting": "[1]; DMF 10 μM 4h", "result": 1.65},
      {"measurement": "R value (DMSO/DMF)", "setting": "[1]; DMF 25 μM 4h", "result": 3.53},
      {"measurement": "R value (DMSO/DMF)", "setting": "[1]; DMF 50 μM 1h", "result": 2.47},
      {"measurement": "R value (DMSO/DMF)", "setting": "[1]; DMF 50 μM 2h", "result": 3.73},
      {"measurement": "R value (DMSO/DMF)", "setting": "[1]; DMF 50 μM 4h", "result": 6.76},
      {"measurement": "R value (DMSO/DMF)", "setting": "[2]; MAT2A C56 (P31153), DMF 50 μM 4h", "result": 4.17},
      {"measurement": "R value (DMSO/DMF)", "setting": "[2]; MAT2A C104 (P31153), DMF 10 μM 4h", "result": 1.5},
      {"measurement": "R value (DMSO/DMF)", "setting": "[2]; MAT2A C104 (P31153), DMF 50 μM 4h", "result": 4.11},
      {"measurement": "R value (DMSO/DMF)", "setting": "[3]; DMF 10 μM 4h", "result": 1.38},
      {"measurement": "R value (DMSO/DMF)", "setting": "[3]; DMF 50 μM 1h", "result": 2.21},
      {"measurement": "R value (DMSO/DMF)", "setting": "[3]; DMF 50 μM 2h", "result": 3.21},
      {"measurement": "R value (DMSO/DMF)", "setting": "[3]; DMF 50 μM 4h", "result": 4.86},
      {"measurement": "R value (DMSO/DMF)", "setting": "[4]; DMF 10 μM 4h", "result": 1.61},
      {"measurement": "R value (DMSO/DMF)", "setting": "[4]; DMF 50 μM 2h", "result": 3.29},
      {"measurement": "R value (DMSO/DMF)", "setting": "[4]; DMF 50 μM 4h", "result": 4.05},
      {"measurement": "R value (DMSO/DMF)", "setting": "[5]; DMF 10 μM 4h", "result": 1.49},
      {"measurement": "R value (DMSO/DMF)", "setting": "[5]; DMF 50 μM 1h", "result": 2.44},
      {"measurement": "R value (DMSO/DMF)", "setting": "[5]; DMF 50 μM 2h", "result": 2.92},
      {"measurement": "R value (DMSO/DMF)", "setting": "[5]; DMF 50 μM 4h", "result": 12.55},
      {"measurement": "R value (DMSO/DMF)", "setting": "[6]; DMF 10 μM 4h", "result": 1.9},
      {"measurement": "R value (DMSO/DMF)", "setting": "[6]; DMF 50 μM 1h", "result": 5.33},
      {"measurement": "R value (DMSO/DMF)", "setting": "[6]; DMF 50 μM 2h", "result": 14.06},
      {"measurement": "R value (DMSO/DMF)", "setting": "[7]; DMF 50 μM 1h", "result": 1.97},
      {"measurement": "R value (DMSO/DMF)", "setting": "[7]; DMF 50 μM 2h", "result": 2.66},
      {"measurement": "R value (DMSO/DMF)", "setting": "[7]; DMF 50 μM 4h", "result": 5.83},
      {"measurement": "R value (DMSO/DMF)", "setting": "[8]; DMF 10 μM 4h", "result": 2.34},
      {"measurement": "R value (DMSO/DMF)", "setting": "[8]; DMF 50 μM 1h", "result": 4},
      {"measurement": "R value (DMSO/DMF)", "setting": "[8]; DMF 50 μM 2h", "result": 20},
      {"measurement": "R value (DMSO/DMF)", "setting": "[8]; DMF 50 μM 4h", "result": 20},
      {"measurement": "R value (DMSO/DMF)", "setting": "[9]; DMF 10 μM 4h", "result": 1.52},
      {"measurement": "R value (DMSO/DMF)", "setting": "[9]; DMF 50 μM 1h", "result": 1.6},
      {"measurement": "R value (DMSO/DMF)", "setting": "[9]; DMF 50 μM 2h", "result": 2.1},
      {"measurement": "R value (DMSO/DMF)", "setting": "[9]; DMF 50 μM 4h", "result": 4.63}
    ]}
  ]
}
